pEC50: −log10 of the molar value.

For one assay, the target named is T1, MerTK (Homo sapiens, UniProt Q12866).
T1 construct: Seed HUVECs (10K cells/well) in EBM-2 complete media; host or cells: HUVEC
T1 sequence (Q12866 21-999): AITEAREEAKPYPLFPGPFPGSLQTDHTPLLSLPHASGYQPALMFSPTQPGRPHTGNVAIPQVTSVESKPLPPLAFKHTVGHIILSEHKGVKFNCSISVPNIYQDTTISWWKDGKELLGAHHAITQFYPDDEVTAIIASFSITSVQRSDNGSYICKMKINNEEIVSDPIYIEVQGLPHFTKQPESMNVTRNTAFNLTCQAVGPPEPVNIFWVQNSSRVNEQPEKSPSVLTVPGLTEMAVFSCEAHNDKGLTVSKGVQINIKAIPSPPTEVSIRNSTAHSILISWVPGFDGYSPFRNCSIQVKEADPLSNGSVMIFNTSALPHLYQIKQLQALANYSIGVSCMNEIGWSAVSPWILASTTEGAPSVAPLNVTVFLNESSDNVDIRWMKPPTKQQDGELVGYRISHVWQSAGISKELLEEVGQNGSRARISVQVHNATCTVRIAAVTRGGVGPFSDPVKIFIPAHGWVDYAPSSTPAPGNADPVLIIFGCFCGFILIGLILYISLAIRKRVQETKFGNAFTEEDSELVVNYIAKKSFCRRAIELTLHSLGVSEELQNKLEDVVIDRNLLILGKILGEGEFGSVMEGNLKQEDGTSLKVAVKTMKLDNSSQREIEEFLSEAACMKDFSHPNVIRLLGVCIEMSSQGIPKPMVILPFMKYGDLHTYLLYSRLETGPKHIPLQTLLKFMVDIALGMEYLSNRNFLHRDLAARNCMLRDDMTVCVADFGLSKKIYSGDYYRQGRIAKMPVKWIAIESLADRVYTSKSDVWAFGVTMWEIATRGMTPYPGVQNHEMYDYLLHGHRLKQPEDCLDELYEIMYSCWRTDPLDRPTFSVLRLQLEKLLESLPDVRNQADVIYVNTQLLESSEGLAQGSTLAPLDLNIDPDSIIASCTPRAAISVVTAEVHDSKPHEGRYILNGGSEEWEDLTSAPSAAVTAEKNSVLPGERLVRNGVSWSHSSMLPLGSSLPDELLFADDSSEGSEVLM
As to the kind of experiment: Phospho-AKT HTRF, HUVEC, Mer-XL, 8 pt (pAKT HTRF-HUVEC assay, anti-human MerTK-XL stimulation). It counts as cell-based. As to conditions: HUVEC cells, pAkt(Ser473) HTRF, anti-human MerTK-XL stimulation 1 ug/mL 10 minutes. As to the method:
(§1) Example 13: PAKT HTRF-HUVEC Assay
(§2) Seed HUVECs (10K cells/well) in EBM-2 complete media (EBM-2 basal medium plus EGM-2 BulletKit supplements) overnight at 37° C., 5% CO2 in Costar 96-well white clear-bottom plates. Remove culture media and starve cells for 3-4 hours in 50 μL/well EBM-2 basal medium. Perform serial dilution of compounds in DMSO from 2.5 mM in 4-fold dilutions, and then dilute 1:125 in EBM-2 basal media. Mix 50 μL/well 2× compounds with 50 μL/well HUVECs in duplicate in Costar 96-well white clear-bottom plates. Incubate plates for 1 hour at 37° C., 5% CO2. Cross-link anti-human MerTK antibody to Biotin-SP-conjugated anti-mouse IgG antibody (1:1) to give final concentrations of 5 μg/mL of anti-human MerTK-XL. Stimulate HUVECs with 25 μL/well 5× anti-human MerTK-XL to give final concentrations of 1 ug/mL for 10 minutes at 37° C., 5% CO2. Completely remove media and lyse HUVECs with 40 uL:WELL per well of Cisbio HTRF 1× lysis buffer. Performed pAkt(Ser473) HTRF assay in ProxiPlate-384 Plus, white 384-shallow well microplate according to the vendor protocol and read plates with a SpectralMax Paradigm plate reader. Enter the HTRF values into Athena (Rigel) for curve fitting, EC50 calculation, and database storage.

The target in another assay is T2, Axl (Homo sapiens, UniProt P30530).
T2 construct: Seed HUVECs (10K cells/well) in EBM-2 complete media; host or cells: HUVEC
T2 sequence (P30530 26-894): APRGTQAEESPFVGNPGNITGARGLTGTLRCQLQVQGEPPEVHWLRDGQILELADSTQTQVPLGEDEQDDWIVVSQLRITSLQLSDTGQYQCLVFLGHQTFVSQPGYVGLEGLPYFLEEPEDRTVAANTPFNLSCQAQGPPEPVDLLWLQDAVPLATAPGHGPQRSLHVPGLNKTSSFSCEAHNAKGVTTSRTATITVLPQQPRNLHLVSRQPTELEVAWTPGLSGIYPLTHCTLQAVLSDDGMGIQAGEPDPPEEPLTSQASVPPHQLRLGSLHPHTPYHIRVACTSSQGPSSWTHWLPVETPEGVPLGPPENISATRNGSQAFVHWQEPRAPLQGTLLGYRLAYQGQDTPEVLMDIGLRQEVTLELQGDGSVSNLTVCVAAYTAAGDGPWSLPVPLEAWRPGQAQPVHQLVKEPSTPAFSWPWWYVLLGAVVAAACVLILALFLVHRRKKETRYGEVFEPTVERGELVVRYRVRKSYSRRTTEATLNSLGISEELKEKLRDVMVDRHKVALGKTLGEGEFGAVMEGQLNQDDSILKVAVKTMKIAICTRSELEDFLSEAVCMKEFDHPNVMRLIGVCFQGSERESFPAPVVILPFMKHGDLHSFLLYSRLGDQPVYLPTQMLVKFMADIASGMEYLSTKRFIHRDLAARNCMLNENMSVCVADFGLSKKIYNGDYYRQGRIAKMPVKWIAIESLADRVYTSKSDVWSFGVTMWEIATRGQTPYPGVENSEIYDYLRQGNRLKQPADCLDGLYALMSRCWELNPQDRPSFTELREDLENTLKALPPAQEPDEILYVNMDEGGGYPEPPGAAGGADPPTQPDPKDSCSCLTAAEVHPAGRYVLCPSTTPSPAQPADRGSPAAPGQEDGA
Briefly: Phospho-AKT HTRF, HUVEC, Axl ABX-L, 8 pt. It counts as cell-based. The note with it: HUVEC cells, pAkt(Ser473) HTRF, Axl ABX-L stimulation. As to the method:
[The source words this procedure for another target and reports this target under the same test.] as §1, §2
(Time-resolved FRET reads energy transfer from a long-lived donor to a nearby acceptor.)

For the compound `CCOC1CCN(c2ccnc(C(=O)Nc3ccc(Oc4ccnc5cc(OCCCN6CCOCC6)c(OC)cc45)cn3)c2)CC1` [Compound 15, 4-(4-ethoxypiperidin-1-yl)-N-(5-((6-methoxy-7-(3-morpholinopropoxy)quinolin-4-yl)oxy)pyridin-2-yl)picolinamide], the pEC50 is 6.69 on MerTK and 6.59 on Axl.

On to `COc1cc2c(Oc3ccc(NC(=O)c4cc(-c5ccccc5)c5c(n4)C4CCN5CC4)nc3)ccnc2cc1OCCCN1CCOCC1` [Compound 7, N-(5-((6-Methoxy-7-(3-morpholinopropoxy)quinolin-4-yl)oxy)pyridin-2-yl)-8-phenyl-3,4-dihydro-2H-1,4-ethano-1,5-naphthyridine-6-carboxamide, hydrochloric acid], for which the results for the negative-log EC50 (pEC50) on MerTK and at Axl were 8.00 and 7.74, respectively.

For the compound `COc1cc2c(Oc3ccc(NC(=O)c4nc(-c5ccccc5)c5c(n4)C4CCN5CC4)nc3)ccnc2cc1OCCCN1CCOCC1` [Compound 35, N-(5-((6-methoxy-7-(3-morpholinopropoxy)quinolin-4-yl)oxy)pyridin-2-yl)-4-phenyl-7,8-dihydro-6H-5,8-ethanopyrido[3,2-d]pyrimidine-2-carboxamide], the pEC50 on MerTK was 8.30; at Axl, 8.52.

`COc1cc2c(Oc3ccc(NC(=O)c4csc(-c5ccc(F)cc5)n4)nc3)ccnc2cc1OCCCN1CCOCC1` [Compound 43, 2-(4-fluorophenyl)-N-(5-((6-methoxy-7-(3-morpholinopropoxy)quinolin-4-yl)oxy)pyridin-2-yl)thiazole-4-carboxamide]: the figures for the negative-log EC50 (pEC50) on MerTK and at Axl were 7.35 and 7.26, respectively.

As to `COc1cc2c(Oc3ccc(NC(=O)c4cc(N5CC(F)(F)C5)ccn4)nc3)ccnc2cc1OCCCN1CCOCC1` [Compound 20, 4-(3,3-difluoroazetidin-1-yl)-N-(5-((6-methoxy-7-(3-morpholinopropoxy)quinolin-4-yl)oxy)pyridin-2-yl)picolinamide], the pEC50 on MerTK is 6.68; on Axl, 6.79.

On to `COc1cc2c(Oc3ccc(NC(=O)c4csc(Br)n4)nc3)ccnc2cc1OCCCN1CCOCC1` [Compound 40, 2-bromo-N-(5-((6-methoxy-7-(3-morpholinopropoxy)quinolin-4-yl)oxy)pyridin-2-yl)thiazole-4-carboxamide], for which the pEC50 at MerTK was 7.57; on Axl, 6.83.

Regarding `COc1cc2nccc(Oc3ccc(NC(=O)c4nc(-c5ccccc5)c5c(n4)C4CCN5CC4)nc3)c2cc1OC` [Compound 38, N-(5-((6,7-dimethoxyquinolin-4-yl)oxy)pyridin-2-yl)-4-phenyl-7,8-dihydro-6H-5,8-ethanopyrido[3,2-d]pyrimidine-2-carboxamide], the pEC50 on MerTK was 8.11; on Axl it was 7.88.

`COc1cc2c(Oc3ccc(NC(=O)c4cc(N5CCC(F)(F)CC5)ccn4)nc3)ccnc2cc1OCCCN1CCOCC1` [Compound 21, 4-(4,4-difluoropiperidin-1-yl)-N-(5-((6-methoxy-7-(3-morpholinopropoxy)quinolin-4-yl)oxy)pyridin-2-yl)picolinamide]: the figures for the pEC50 on MerTK and at Axl were 7.09 and 7.20, respectively.

Regarding `COc1cc2c(Oc3ccc(NC(=O)c4cc(N5CCOCC5)ccn4)nc3)ccnc2cc1OCCCN1CCOCC1` [Compound 14, N-(5-((6-methoxy-7-(3-morpholinopropoxy)quinolin-4-yl)oxy)pyridin-2-yl)-4-morpholinopicolinamide], the pEC50 was 6.37 on MerTK and 6.09 on Axl.

On to `COc1cc2c(Oc3ccc(NC(=O)c4csc(-c5ccccc5)n4)nc3)ccnc2cc1OCCCN1CCOCC1` [Compound 42, N-(5-((6-methoxy-7-(3-morpholinopropoxy)quinolin-4-yl)oxy)pyridin-2-yl)-2-phenylthiazole-4-carboxamide], for which the pEC50 at MerTK is 7.33; on Axl, 7.30.

For `COc1cc2c(Oc3ccc(NC(=O)c4nc(-c5ccccc5)c5c(n4)C4CCN5CC4)nc3)ccnc2cc1OCCCN1CCOCC1` [Compound 6, N-(5-((6-methoxy-7-(3-morpholinopropoxy)quinolin-4-yl)oxy)pyridin-2-yl)-4-phenyl-7,8-dihydro-6H-5,8-ethanopyrido[3,2-d]pyrimidine-2-carboxamide, hydrochloric acid], the results for the pEC50 at MerTK and on Axl were 8.60 and 8.48, respectively.

On to `COc1cc2c(Oc3ccc(NC(=O)c4cccc(N5CCC(C)(C)CC5)n4)nc3)ccnc2cc1OCCCN1CCOCC1` [Compound 27, 6-(4,4-dimethylpiperidin-1-yl)-N-(5-((6-methoxy-7-(3-morpholinopropoxy)quinolin-4-yl)oxy)pyridin-2-yl)picolinamide], for which the pEC50 at MerTK is 6.99; at Axl, 7.07.

In the case of `COc1cc2c(Oc3ccc(NC(=O)c4csc(N5CCC(O)CC5)n4)nc3)ccnc2cc1OCCCN1CCOCC1` [Compound 41, 2-(4-hydroxypiperidin-1-yl)-N-(5-((6-methoxy-7-(3-morpholinopropoxy)quinolin-4-yl)oxy)pyridin-2-yl)thiazole-4-carboxamide], the negative-log EC50 (pEC50) on MerTK is 6.19; at Axl, 5.67.

In the case of `COc1cc2c(Oc3ccc(NC(=O)c4cc(N5CCN(C)CC5)ccn4)nc3)ccnc2cc1OCCCN1CCOCC1` [Compound 1, N-(5-((6-Methoxy-7-(3-morpholinopropoxy)quinolin-4-yl)oxy)pyridin-2-yl)-4-(4-methylpiperazin-1-yl)picolinamide], the pEC50 on MerTK is 6.38; on Axl, 6.39.

For `COc1cc2c(Oc3ccc(NC(=O)c4cccc(N5CCC(F)(F)CC5)n4)nc3)ccnc2cc1OCCCN1CCOCC1` [Compound 28, 6-(4,4-difluoropiperidin-1-yl)-N-(5-((6-methoxy-7-(3-morpholinopropoxy)quinolin-4-yl)oxy)pyridin-2-yl)picolinamide], the negative logarithm of the EC50 (pEC50) is 8.21 at MerTK and 7.41 on Axl.

As for `COc1cc2c(Oc3ccc(NC(=O)c4cc(N5CCC(O)CC5)ccn4)nc3)ccnc2cc1OCCCN1CCOCC1` [Compound 11, 4-(4-Hydroxypiperidin-1-yl)-N-(5-((6-methoxy-7-(3-morpholino-propoxy)quinolin-4-yl)oxy)pyridin-2-yl)picolinamide], the pEC50 at MerTK is 7.07; on Axl, 6.71.

In general, pEC50 refers to −log10 of the EC50, conventionally taken in molar units. High values mean a small EC50, low ones a large EC50.
